Experimental data taken from publication PMC12475274, “Harnessing indole scaffolds to identify small-molecule IRE1α inhibitors modulating XBP1 mRNA splicing” (Nature Communications, 2025).
“Also recorded” adds a separate entry of the source.

Columns and labels:
[1] = test system: XBP1s protein in A549 cells; experiment: Western blot of XBP1s protein level, A549; format: cell-based, human; settings: 2 h compound, then 1 μg/mL tunicamycin 4 h
Method: (§1) A549 cells and MDA-MB-231 Cells were harvested and seeded into 6-well plates with a density of 8 × 10^5 cells per well and cultured overnight. […]. Protein concentrations were measured using a BCA protein assay kit (Thermo Scientific, 23227) and all samples were diluted to the same protein concentration. Each sample with 40 μg of total protein was loaded onto a 4–15% MP stain-free gel (Bio-Rad, 4568085) and separated in tris-glycine-SDS running buffer. The proteins were transferred onto a 0.45 μm PVDF membrane (Bio-Rad, 1704274) using the Trans-Blot Turbo Transfer System with the preprogrammed standard SD protocol (up to 1.0 A; 25 V; 30 min). Membranes were blocked with 5% skim milk (Roth, T145.2) in PBST buffer, then incubated with primary antibody IRE1α (Cell Signaling Technology, #3294 s, 1:1000), XBP1s (Cell Signaling Technology, #12782 s, 1:1000) GAPDH (Proteintech, 10494-1-AP, 1:6000) overnight at 4 °C with shaking. After incubation, membranes were washed with PBST and incubated with the Goat Anti-Rabbit (Proteintech, SA00001-2, 1:6000) antibody at room temperature for 1 h. After washing with PBST, the membranes were visualized using Amersham ECL Prime Western Blotting Detection Kit (Cytiva, RPN2232) and imaged with a ChemiDoc MP imaging system (Bio-Rad).

[2] = test system: XBP1s protein in MDA-MB-231 cells; experiment: Western blot of XBP1s protein level, MDA-MB-231; format: cell-based, human
Method: as §1

[3] = biological target: T1, wild-type full-length IRE1α in A549 cell lysate (Homo sapiens, UniProt O75460); experiment: Thermal stability assay in A549 cell lysate; format: binding
T1 construct: endogenous in cells; host or cells: A549 cells
Method: A549 cells were harvested and seeded into 100 mm standard cell culture dishes at 80% confluency and cultured overnight. For the IA107 experiment, cells were gently washed with pre-cooled DPBS (Gibco,14190169) and lysed in RIPA buffer (Sigma, R0278) supplemented with phosphatase inhibitor (Roch, 4906845001) and 1× protease inhibitor cocktail (Sigma, P8340) for 30 min on ice. Cell lysates were centrifuged at 18,000 × g for 30 min at 4 °C and the supernatants were collected. The lysates were collected together and then aliquoted into 550 μL, the aliquots were incubated with different concentrations of IA107 with a final concentration of 0.1% DMSO for 30 min at room temperature. After the incubation, the sample was aliquoted into 10 PCR tubes, with 50 μL of lysate per tube and further heated at the indicated temperatures using a PCR cycler (25 °C for 1 min; indicated temperatures for 3 min; 16 °C, hold). After heating, the lysates were centrifuged at 18,000 × g for 30 min at 4 °C and the supernatants were collected and mixed with 4x protein loading buffer (Invitrogen, 2463559), heated at 95 °C for 10 min and separated by 4–20% MP stain-free gels (Bio-Rad, 4568095) then transferred to 0.45 μm PVDF membranes (Bio-Rad, 1704274) using the Trans-Blot Turbo Transfer System with the preprogrammed standard SD protocol (Bio-Rad). […]

[4] = test system: A549 cells; experiment: Cell viability assay (CCK-8), A549; format: cell-based, human; settings: A549; for inhibition at 50 µM: Homo sapiens, read-out: antiproliferation, inhibition at highest tested concentration
Method: (§2) Cells were collected and seeded into 96-well plates at a density of 2000–4000 cells per well and cultured overnight to allow cells to adhere. After adherence, cells were treated with the indicated compounds for 72 h. Then 20 μL CCK-8 solution (Vazyme, A311) was added into each well and incubated at 37 °C for 2–4 h. Absorbance was detected at a wavelength of 450 nm using a TECAN plate reader. Cell viability was calculated with the equation: Cell viability (%) = 100(Absorbance of treated cell - Absorbance of Blank control)/ (Absorbance of DMSO-treated cells - Absorbance of Blank control); Blank control: medium and CCK-8 solution, no cells.

[5] = test system: MDA-MB-468 cells; experiment: Cell viability assay (CCK-8), MDA-MB-468; format: cell-based, human; settings: MDA-MB-468; for inhibition at 50 µM: Homo sapiens, read-out: antiproliferation, inhibition at highest tested concentration
Method: as §2

[6] = biological target: PRKD1 (PKC mu) (Homo sapiens, UniProt Q15139); experiment: Kinase profiling (SelectScreen), ZLYTE; format: biochemical
Method: (§3) Kinase profiling was conducted by the SelectScreen Kinase Profiling Services (Thermo Fisher), using Z′-LYTE, Adapta, or LanthaScreen Eu Kinase Binding Assay for different kinases. The kinome phylogenetic tree was generated using the KinMap web portal.

[7] = biological target: PTK2 (FAK) (Homo sapiens, UniProt Q05397); experiment: Kinase profiling (SelectScreen), ZLYTE; format: biochemical
Method: as §3

[8] = test system: IRE1α transcription level in HCT 116 cells; experiment: RT-qPCR of IRE1α transcription level, HCT 116; format: cell-based, human; settings: HCT 116 cells
Method: A549 cells, HCT 116 cells, and HT-29 cells were collected and seeded in 6-well plates at a density of 5 × 10^5 cells per well and cultured overnight to attach, then treated with compound or DMSO for 2 h, then 0.5 μg/mL final concentration of tunicamycin (Tm, MP Biomedi, 0215002805) were added to induce the ER stress for 2 h. After treatment, total RNA was purified using an RNeasy mini kit (Qiagen, 74106). 500 ng of total RNA was used for reverse transcription using the High-Capacity cDNA Reverse Transcription Kits (Thermo Fisher, 4368814). cDNA was diluted 1: 5 using RNase-free water, and 1 μL CDNA was used for each qPCR reaction. The qPCR was performed using PowerUp™ SYBR™ Green Master Mix (Thermo Fisher, A25742) with 10 µL reaction volume using Bio-Rad CFX96 Real-Time PCR Detection System following the standard cycling mode (primer Tm ≥ 60 °C) on the manufacturer’s protocol. Data was analyzed using the 2^- ΔΔCt method. The primers used are listed in Supplementary Table S3. The inhibition % was calculated by using the equation: inhibition% = 100× (normalized Tm control - normalized of the sample)/(normalized Tm control - normalized DMSO control). Tm control: Cells treated with tunicamycin; DMSO control: Cells treated with DMSO only.

T1 sequence (O75460 19-977): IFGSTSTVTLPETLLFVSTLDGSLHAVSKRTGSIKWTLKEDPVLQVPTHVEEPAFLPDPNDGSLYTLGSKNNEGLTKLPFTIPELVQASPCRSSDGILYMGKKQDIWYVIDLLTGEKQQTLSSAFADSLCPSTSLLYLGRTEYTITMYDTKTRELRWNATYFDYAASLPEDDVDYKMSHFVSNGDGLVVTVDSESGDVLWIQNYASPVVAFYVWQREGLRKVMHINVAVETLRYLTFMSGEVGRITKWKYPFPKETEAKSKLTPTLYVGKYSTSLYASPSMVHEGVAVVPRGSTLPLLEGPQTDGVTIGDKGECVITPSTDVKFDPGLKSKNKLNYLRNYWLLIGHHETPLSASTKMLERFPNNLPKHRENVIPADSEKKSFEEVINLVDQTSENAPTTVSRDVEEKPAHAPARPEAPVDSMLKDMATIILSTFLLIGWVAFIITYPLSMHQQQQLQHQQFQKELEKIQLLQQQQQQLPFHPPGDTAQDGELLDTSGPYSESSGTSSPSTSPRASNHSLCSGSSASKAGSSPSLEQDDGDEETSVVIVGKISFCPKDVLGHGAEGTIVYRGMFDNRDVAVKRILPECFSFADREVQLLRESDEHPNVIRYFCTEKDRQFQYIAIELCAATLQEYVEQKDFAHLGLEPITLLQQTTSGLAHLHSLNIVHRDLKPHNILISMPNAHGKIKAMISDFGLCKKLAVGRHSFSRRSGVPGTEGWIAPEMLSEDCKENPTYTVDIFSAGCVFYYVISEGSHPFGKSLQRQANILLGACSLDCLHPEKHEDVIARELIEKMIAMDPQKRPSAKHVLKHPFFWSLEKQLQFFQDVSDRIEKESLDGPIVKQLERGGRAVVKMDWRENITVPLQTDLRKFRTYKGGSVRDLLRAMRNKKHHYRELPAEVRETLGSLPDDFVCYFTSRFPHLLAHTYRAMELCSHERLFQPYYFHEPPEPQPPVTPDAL
Chain of PTK2 (FAK) (Q05397 whole entry): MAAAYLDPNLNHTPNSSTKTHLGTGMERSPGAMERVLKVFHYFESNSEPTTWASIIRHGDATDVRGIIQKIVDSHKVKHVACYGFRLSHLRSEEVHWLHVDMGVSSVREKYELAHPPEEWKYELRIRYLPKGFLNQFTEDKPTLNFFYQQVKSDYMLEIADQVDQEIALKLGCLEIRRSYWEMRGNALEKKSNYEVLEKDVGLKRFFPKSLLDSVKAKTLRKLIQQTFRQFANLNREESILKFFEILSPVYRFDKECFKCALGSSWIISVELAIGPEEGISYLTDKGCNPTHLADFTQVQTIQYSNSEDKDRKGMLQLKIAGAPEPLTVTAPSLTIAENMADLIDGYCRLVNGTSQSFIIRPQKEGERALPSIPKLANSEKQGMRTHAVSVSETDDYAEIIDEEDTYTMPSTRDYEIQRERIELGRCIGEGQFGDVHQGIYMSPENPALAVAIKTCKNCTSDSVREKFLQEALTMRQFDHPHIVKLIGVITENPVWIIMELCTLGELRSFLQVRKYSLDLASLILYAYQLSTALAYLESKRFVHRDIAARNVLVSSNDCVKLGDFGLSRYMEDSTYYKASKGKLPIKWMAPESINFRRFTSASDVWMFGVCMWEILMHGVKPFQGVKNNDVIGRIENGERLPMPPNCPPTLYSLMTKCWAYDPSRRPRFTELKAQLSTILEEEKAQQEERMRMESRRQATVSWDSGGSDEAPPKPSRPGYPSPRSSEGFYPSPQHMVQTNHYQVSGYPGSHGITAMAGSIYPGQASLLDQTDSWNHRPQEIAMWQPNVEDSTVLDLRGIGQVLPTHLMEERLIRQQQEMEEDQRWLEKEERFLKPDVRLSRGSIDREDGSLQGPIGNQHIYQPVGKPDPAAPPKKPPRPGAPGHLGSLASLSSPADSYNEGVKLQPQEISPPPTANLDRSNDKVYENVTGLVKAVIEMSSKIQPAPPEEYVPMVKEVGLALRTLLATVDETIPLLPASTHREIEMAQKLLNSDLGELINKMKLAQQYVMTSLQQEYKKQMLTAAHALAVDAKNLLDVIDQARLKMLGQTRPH
Chain of PRKD1 (PKC mu) (Q15139 whole entry): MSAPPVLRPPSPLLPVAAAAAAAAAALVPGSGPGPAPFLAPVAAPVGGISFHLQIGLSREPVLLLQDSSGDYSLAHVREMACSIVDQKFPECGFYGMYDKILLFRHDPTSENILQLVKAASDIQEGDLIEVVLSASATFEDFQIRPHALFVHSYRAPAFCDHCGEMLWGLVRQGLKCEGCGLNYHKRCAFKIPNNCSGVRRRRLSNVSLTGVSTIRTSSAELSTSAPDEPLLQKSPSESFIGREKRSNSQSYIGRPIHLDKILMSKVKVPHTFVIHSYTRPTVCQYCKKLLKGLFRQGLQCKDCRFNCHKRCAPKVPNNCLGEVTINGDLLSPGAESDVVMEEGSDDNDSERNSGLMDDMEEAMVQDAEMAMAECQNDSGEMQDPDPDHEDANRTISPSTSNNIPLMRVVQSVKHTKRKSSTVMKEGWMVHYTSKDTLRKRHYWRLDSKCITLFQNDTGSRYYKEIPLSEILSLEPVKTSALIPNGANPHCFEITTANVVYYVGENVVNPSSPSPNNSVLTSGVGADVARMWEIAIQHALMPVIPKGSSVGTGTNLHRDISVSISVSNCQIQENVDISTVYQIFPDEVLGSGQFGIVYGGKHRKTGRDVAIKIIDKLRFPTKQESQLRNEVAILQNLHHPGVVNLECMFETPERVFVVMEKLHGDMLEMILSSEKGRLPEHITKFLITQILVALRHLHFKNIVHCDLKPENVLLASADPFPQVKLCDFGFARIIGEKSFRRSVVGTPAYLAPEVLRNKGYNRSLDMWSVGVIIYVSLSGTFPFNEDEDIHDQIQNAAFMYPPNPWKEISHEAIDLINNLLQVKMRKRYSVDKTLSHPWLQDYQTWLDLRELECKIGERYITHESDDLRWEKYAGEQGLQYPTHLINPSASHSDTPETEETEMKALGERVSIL

Structure (SMILES)	effect on ER stress-induced XBP1s protein [1]	effect on ER stress-induced XBP1s protein [2]	thermal stabilization of full-length IRE1α in cell lysate [3]	cytotoxicity [4]	inhibition at 50 µM [4] [%]	inhibition at 50 µM [5] [%]	cytotoxicity [5]	inhibition at 5 µM [6] [%]	inhibition at 5 µM [7] [%]	effect on IRE1α transcription level [8]
CCOC(=O)Nc1cccc2c(Oc3ncccc3-c3ccnc(N[C@H]4CCCNC4)n3)c(C)ccc12 [Compound G1749, reference compound]	partially inhibited	partially inhibited								
Cc1c(CCC(=O)O)c2cc(Br)ccc2n1C(=O)c1ccccc1 [IA107]			concentration-dependently stabilized; also recorded: stabilized full-length IRE1α in cell lysate; also recorded: stabilized the full-length IRE1α in a concentration-dependent manner	did not show cytotoxicity	< 30	< 30	did not show cytotoxicity	0	4	
CCOC(=O)CCc1c(C)n(C(=O)c2ccccc2)c2ccc(Br)cc12 [IAPD1]	inhibited the XPB1s protein level	inhibited the XPB1s protein level		did not show cytotoxicity	< 30	< 30	did not show cytotoxicity			did not influence; also recorded: no obvious impact
